Data taken from ChEMBL document CHEMBL5303573, “Mapping human microbiome drug metabolism by gut bacteria and their genes” (Nature, 2019).

What was measured:
[1] = The drug is tested on Eubacterium rectale strain: ATCC33656 for biotransformation. The drug concentrations were measured before and after a 12-h incubation by liquid-chromatography-coupled mass spectrometry (LC–MS); details: agathobacter rectalis, 2 µM
[2] = The drug is tested on Collinsella intestinalis strain: DSM13280 for biotransformation. The drug concentrations were measured before and after a 12-h incubation by liquid-chromatography-coupled mass spectrometry (LC–MS); details: 2 µM
[3] = The drug is tested on Collinsella aerofaciens strain: ATCC25986 for biotransformation. The drug concentrations were measured before and after a 12-h incubation by liquid-chromatography-coupled mass spectrometry (LC–MS); details: 2 µM
[4] = The drug is tested on Parabacteroides merdae strain: ATCC43184 for biotransformation. The drug concentrations were measured before and after a 12-h incubation by liquid-chromatography-coupled mass spectrometry (LC–MS); details: 2 µM
[5] = The drug is tested on Bacteroides uniformis strain: ATCC8492 for biotransformation. The drug concentrations were measured before and after a 12-h incubation by liquid-chromatography-coupled mass spectrometry (LC–MS); details: 2 µM
[6] = The drug is tested on Blautia luti strain: DSM14534 for biotransformation. The drug concentrations were measured before and after a 12-h incubation by liquid-chromatography-coupled mass spectrometry (LC–MS); type: ADME; set-up: dose 2 uM, timepoint 0 vs 12 hours; details: 2 µM
[7] = The drug is tested on Bifidobacterium ruminantium strain: fecal isolate for biotransformation. The drug concentrations were measured before and after a 12-h incubation by liquid-chromatography-coupled mass spectrometry (LC–MS); details: 2 µM
[8] = The drug is tested on Anaerotruncus colihominis strain: DSM17241 for biotransformation. The drug concentrations were measured before and after a 12-h incubation by liquid-chromatography-coupled mass spectrometry (LC–MS); details: 2 µM
[9] = The drug is tested on Enterococcus faecalis strain: V583 for biotransformation. The drug concentrations were measured before and after a 12-h incubation by liquid-chromatography-coupled mass spectrometry (LC–MS); details: 2 µM
[10] = The drug is tested on Providencia stuartii strain: ATCC25827 for biotransformation. The drug concentrations were measured before and after a 12-h incubation by liquid-chromatography-coupled mass spectrometry (LC–MS); details: 2 µM
[11] = The drug is tested on Clostridium scindens strain: ATCC35704 for biotransformation. The drug concentrations were measured before and after a 12-h incubation by liquid-chromatography-coupled mass spectrometry (LC–MS); details: 2 µM
[12] = The drug is tested on Bacteroides fragilis strain: HMW615 for biotransformation. The drug concentrations were measured before and after a 12-h incubation by liquid-chromatography-coupled mass spectrometry (LC–MS); details: 2 µM
[13] = anaerostipes sp., 12 h, 2 µM
Description: The drug is tested on Anaerostipes sp. strain: fecal isolate for biotransformation. The drug concentrations were measured before and after a 12-h incubation by liquid-chromatography-coupled mass spectrometry (LC–MS)

[14] = The drug is tested on Bifidobacterium longum subsp. Infantis strain: CCUG52486 for biotransformation. The drug concentrations were measured before and after a 12-h incubation by liquid-chromatography-coupled mass spectrometry (LC–MS); details: 2 µM
[15] = The drug is tested on Bacteroides cellulosilyticus strain: DSM14838 for biotransformation. The drug concentrations were measured before and after a 12-h incubation by liquid-chromatography-coupled mass spectrometry (LC–MS); details: 2 µM
[16] = bacteroides thetaiotaomicron, 12 h, 2 µM
Description: The drug is tested on Bacteroides thetaiotaomicron strain: VPI-5482 for biotransformation. The drug concentrations were measured before and after a 12-h incubation by liquid-chromatography-coupled mass spectrometry (LC–MS)

[17] = The drug is tested on Bifidobacterium breve strain: DSM20213 for biotransformation. The drug concentrations were measured before and after a 12-h incubation by liquid-chromatography-coupled mass spectrometry (LC–MS); details: 2 µM
[18] = The drug is tested on Bacteroides xylanisolvens strain: DSM18836 for biotransformation. The drug concentrations were measured before and after a 12-h incubation by liquid-chromatography-coupled mass spectrometry (LC–MS); details: 2 µM
[19] = The drug is tested on Blautia hansenii strain: DSM20583 for biotransformation. The drug concentrations were measured before and after a 12-h incubation by liquid-chromatography-coupled mass spectrometry (LC–MS); details: 2 µM
[20] = The drug is tested on Bacteroides dorei strain: DSM17855 for biotransformation. The drug concentrations were measured before and after a 12-h incubation by liquid-chromatography-coupled mass spectrometry (LC–MS); details: phocaeicola dorei, 2 µM

Structure (SMILES)	Bacterial Biotransformation [1]	Bacterial Biotransformation [2]	Bacterial Biotransformation [3]	Bacterial Biotransformation [4]	Bacterial Biotransformation [5]	Bacterial Biotransformation [6]	Bacterial Biotransformation [7]	Bacterial Biotransformation [8]	Bacterial Biotransformation [9]	Bacterial Biotransformation [10]	Bacterial Biotransformation [11]	Bacterial Biotransformation [12]	Bacterial Biotransformation [13]	Bacterial Biotransformation [14]	Bacterial Biotransformation [15]	Bacterial Biotransformation [16]	Bacterial Biotransformation [17]	Bacterial Biotransformation [18]	Bacterial Biotransformation [19]	Bacterial Biotransformation [20]
CC(C)(C)NC(=O)[C@H]1CC[C@H]2[C@@H]3CC[C@H]4NC(=O)C=C[C@]4(C)[C@H]3CC[C@]12C [FINASTERIDE]	Compound NOT metabolized	Compound NOT metabolized	Compound NOT metabolized	Compound NOT metabolized	Compound metabolized	Compound NOT metabolized	Compound NOT metabolized	Compound NOT metabolized	Compound NOT metabolized	Compound NOT metabolized	Compound metabolized	Compound metabolized	Compound NOT metabolized	Compound NOT metabolized	Compound NOT metabolized	Compound NOT metabolized	Compound NOT metabolized	Compound metabolized	Compound NOT metabolized	Compound metabolized
COc1ccc2c(c1)c(CC(=O)O)c(C)n2C(=O)c1ccc(Cl)cc1 [INDOMETHACIN]	Compound NOT metabolized	Compound NOT metabolized	Compound NOT metabolized	Compound metabolized	Compound metabolized	Compound NOT metabolized	Compound NOT metabolized	Compound NOT metabolized	Compound NOT metabolized	Compound NOT metabolized	Compound NOT metabolized	Compound NOT metabolized	Compound metabolized	Compound metabolized	Compound metabolized	Compound metabolized	Compound NOT metabolized	Compound metabolized	Compound NOT metabolized	Compound metabolized
C#C[C@]1(OC(C)=O)CC[C@H]2[C@@H]3CCC4=C/C(=N/O)CC[C@@H]4[C@H]3CC[C@@]21CC [NORGESTIMATE]	Compound metabolized	Compound NOT metabolized	Compound NOT metabolized	Compound NOT metabolized	Compound metabolized	Compound NOT metabolized	Compound NOT metabolized	Compound NOT metabolized	Compound NOT metabolized	Compound NOT metabolized	Compound NOT metabolized	Compound NOT metabolized	Compound NOT metabolized	Compound NOT metabolized	Compound NOT metabolized	Compound NOT metabolized	Compound NOT metabolized	Compound NOT metabolized	Compound metabolized	Compound metabolized
O=C(O)CCc1nc(-c2ccccc2)c(-c2ccccc2)o1 [OXAPROZIN]	Compound NOT metabolized	Compound NOT metabolized	Compound NOT metabolized	Compound NOT metabolized	Compound metabolized	Compound NOT metabolized	Compound metabolized	Compound NOT metabolized	Compound NOT metabolized	Compound NOT metabolized	Compound NOT metabolized	Compound metabolized	Compound NOT metabolized	Compound NOT metabolized	Compound NOT metabolized	Compound metabolized	Compound NOT metabolized	Compound metabolized	Compound metabolized	Compound metabolized

Continued, values first:

Bacterial Biotransformation [1]	Bacterial Biotransformation [2]	Bacterial Biotransformation [3]	Bacterial Biotransformation [4]	Bacterial Biotransformation [5]	Bacterial Biotransformation [6]	Bacterial Biotransformation [7]	Bacterial Biotransformation [8]	Bacterial Biotransformation [9]	Bacterial Biotransformation [10]	Bacterial Biotransformation [11]	Bacterial Biotransformation [12]	Bacterial Biotransformation [13]	Bacterial Biotransformation [14]	Bacterial Biotransformation [15]	Bacterial Biotransformation [16]	Bacterial Biotransformation [17]	Bacterial Biotransformation [18]	Bacterial Biotransformation [19]	Bacterial Biotransformation [20]	Structure (SMILES)
Compound NOT metabolized	Compound NOT metabolized	Compound NOT metabolized	Compound NOT metabolized	Compound metabolized	Compound NOT metabolized	Compound NOT metabolized	Compound NOT metabolized	Compound NOT metabolized	Compound NOT metabolized	Compound NOT metabolized	Compound NOT metabolized	Compound NOT metabolized	Compound NOT metabolized	Compound NOT metabolized	Compound NOT metabolized	Compound NOT metabolized	Compound NOT metabolized	Compound NOT metabolized	Compound NOT metabolized	O=C1[C@H](CC[C@H](O)c2ccc(F)cc2)[C@@H](c2ccc(O)cc2)N1c1ccc(F)cc1 [EZETIMIBE]
Compound NOT metabolized	Compound NOT metabolized	Compound NOT metabolized	Compound NOT metabolized	Compound NOT metabolized	Compound NOT metabolized	Compound NOT metabolized	Compound NOT metabolized	Compound NOT metabolized	Compound NOT metabolized	Compound NOT metabolized	Compound NOT metabolized	Compound NOT metabolized	Compound NOT metabolized	Compound NOT metabolized	Compound NOT metabolized	Compound NOT metabolized	Compound NOT metabolized	Compound metabolized	Compound NOT metabolized	CCC(C)n1ncn(-c2ccc(N3CCN(c4ccc(OCC5COC(Cn6cncn6)(c6ccc(Cl)cc6Cl)O5)cc4)CC3)cc2)c1=O (stereo not given) [ITRACONAZOLE]
